Data on 4 molecules can be found in paper PMC9126943, “ADAMTS4-specific MR probe to assess aortic aneurysms in vivo using synthetic peptide libraries” (Nature Communications, 2022).

In assay [1] the target is T1, ADAMTS4 (Homo sapiens, UniProt O75173).
T1 construct: This is consistent with the recombinant proteins, we used in the screening process; purchased BioTeZ Berlin-Buch GmbH 30 400 102
T1 sequence (O75173 213-685): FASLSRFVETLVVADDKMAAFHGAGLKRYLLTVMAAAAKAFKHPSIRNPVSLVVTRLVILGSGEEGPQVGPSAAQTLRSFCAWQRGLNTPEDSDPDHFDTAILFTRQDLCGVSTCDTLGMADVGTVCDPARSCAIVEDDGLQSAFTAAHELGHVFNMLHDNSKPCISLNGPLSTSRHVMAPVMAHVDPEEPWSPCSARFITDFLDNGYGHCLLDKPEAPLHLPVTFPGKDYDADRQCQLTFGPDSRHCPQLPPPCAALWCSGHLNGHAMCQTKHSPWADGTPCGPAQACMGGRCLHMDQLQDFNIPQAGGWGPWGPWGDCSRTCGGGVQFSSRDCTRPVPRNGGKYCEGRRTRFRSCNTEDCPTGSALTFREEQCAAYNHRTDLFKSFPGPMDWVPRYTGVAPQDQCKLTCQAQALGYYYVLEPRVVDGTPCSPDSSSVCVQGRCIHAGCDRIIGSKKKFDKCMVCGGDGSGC
The experiment in a line: MST instrument, ligand-dependent fluorescence change, Cy5-labeled peptides vs ADAMTS4 (incl. alanine scan). Type of assay: binding. The following applies: for binding to ADAMTS4 (ligand-dependent fluorescence change), in words: Cy5-labeled peptide 3 nM, 25 °C, n = 3. The procedure: Microscale thermophoresis (MST) was performed on a Monolith Pico (NanoTemper, Munich, Germany). The Cy5-labeled peptides were diluted into the MST buffer (150 mM NaCl, 50 mM TRIS-HCl, 5 mM CaCl2, and Tween-20) to reach a dilution of 6 nM. ADAMTS4, ADAMTS5, and ADAMTS1 were directly used with the supplied concentration. For ADAMTS4, the starting concentration was 4.96 µM, while for ADAMTS1 it was 4.88 µM and for ADAMTS5 it was 2.46 µM. […] 20 µl of the protein solutions were transferred into a PCR tube. 10 µl of this first vial was transferred into a second vial and mixed by pipetting with 10 µl of the MST buffer. The dilution series was continued 14 times. From tube 16, 10 µl were removed. Into all 16 tubes, 10 µl of the respective peptide solution were added and mixed by pipetting. The samples were incubated for 20 min and subsequently transferred to premium capillaries (NanoTemper, Munich, Germany). The capillaries were transferred into the Monolith tray and measured with 10% excitation power on the pico-red excitation on high MST power at 25 °C. Analysis was performed with MO.Affinity Analysis v3.0.1 (NanoTemper, Munich, Germany) and Origin 2022 (OriginLab Corporation, Northampton, MA). […] We checked for ADAMTS4 and the ADAMTS4-specific-Cy5-labeled probe via a saturation test for specifying the ligand-dependent fluorescence change. Therefore, the three highest ligand concentrations and the three lowest ligand concentrations of the measurement were used and centrifuged for 15 min at 16060 x g at 20 °C. Of each concentration, 7 µl were picked and mixed with 7 µl of a 10 M urea solution each. The samples were heated at 95 °C for 5 min and measured in the MST. […] Each measurement was repeated three times independently and the binding constant was calculated by merging all three measurements. […] The data were normalized using MO Affinity Analysis v3.0.1 and the fraction bound [−] was shown. […] Therefore, the percentage variance of the values to the average was plotted.
All measurements were performed with 10% LED power, high MST power and at 25 °C. The ligand dependent fluorescence change was used for determining the binding. […] The concentrations of the peptide were kept constant (3 nM in the measurement), while the proteins were diluted in the same manner as for ADAMTS4. […] The Cy5-labeled peptides (3 nM in the measurement) were kept constant, while ADAMTS4 was diluted in the same manner for each peptide (n=3 biologically independent measurements for each peptide; the data are presented as mean values ± SD). […] MST: microscale thermophoresis; nM: nanomolar; His: L-histidine; LED: light-emitting diode; n/a: not available; KD: binding constant.

The target of assay [2] is T1, ADAMTS4. The assay can be described thus: MST trace (MST points at 2.5 seconds) of peptides without fluorescence change. Type of assay: binding. The following applies: high MST power. The procedure:
Microscale thermophoresis (MST) was performed on a Monolith Pico (NanoTemper, Munich, Germany). The Cy5-labeled peptides were diluted into the MST buffer (150 mM NaCl, 50 mM TRIS-HCl, 5 mM CaCl2, and Tween-20) to reach a dilution of 6 nM. ADAMTS4, ADAMTS5, and ADAMTS1 were directly used with the supplied concentration. For ADAMTS4, the starting concentration was 4.96 µM, while for ADAMTS1 it was 4.88 µM and for ADAMTS5 it was 2.46 µM. Since we saw a loss of binding after centrifugation, the use of protein concentrators were inappropriate. 20 µl of the protein solutions were transferred into a PCR tube. 10 µl of this first vial was transferred into a second vial and mixed by pipetting with 10 µl of the MST buffer. […] The capillaries were transferred into the Monolith tray and measured with 10% excitation power on the pico-red excitation on high MST power at 25 °C. […] We detected a ligand-dependent fluorescence change for some of the systems. We checked for ADAMTS4 and the ADAMTS4-specific-Cy5-labeled probe via a saturation test for specifying the ligand-dependent fluorescence change. […] The samples were heated at 95 °C for 5 min and measured in the MST. The fluorescence difference between the concentrations was afterward at the same level. Each measurement was repeated three times independently and the binding constant was calculated by merging all three measurements. […]

Assay [3] concerns the target T2, ADAMTS4 in the aortic wall of ApoE−/− mice (Mus musculus, UniProt Q8BNJ2).
T2 construct: from tissue
T2 sequence (Q8BNJ2 209-833): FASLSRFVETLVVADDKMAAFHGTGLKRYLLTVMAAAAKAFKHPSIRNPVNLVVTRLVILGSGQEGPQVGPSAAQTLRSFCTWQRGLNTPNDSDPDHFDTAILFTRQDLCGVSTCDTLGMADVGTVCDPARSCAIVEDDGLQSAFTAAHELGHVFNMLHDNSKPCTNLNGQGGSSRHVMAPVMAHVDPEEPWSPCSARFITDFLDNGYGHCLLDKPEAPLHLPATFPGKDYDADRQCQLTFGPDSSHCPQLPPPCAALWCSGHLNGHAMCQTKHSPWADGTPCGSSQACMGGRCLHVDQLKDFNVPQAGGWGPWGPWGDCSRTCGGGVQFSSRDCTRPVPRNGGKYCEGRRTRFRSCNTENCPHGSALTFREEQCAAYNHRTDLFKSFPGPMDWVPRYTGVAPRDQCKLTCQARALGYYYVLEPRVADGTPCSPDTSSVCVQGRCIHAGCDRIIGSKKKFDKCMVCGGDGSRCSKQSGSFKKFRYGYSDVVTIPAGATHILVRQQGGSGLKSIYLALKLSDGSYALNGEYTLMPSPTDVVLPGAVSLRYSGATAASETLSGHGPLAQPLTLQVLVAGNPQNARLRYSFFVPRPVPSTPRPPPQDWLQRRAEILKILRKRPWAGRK
The assay can be described thus: In vivo MRI with negative control probe and ADAMTS4-specific probe. The following applies: for CNR post administration, individual animals: d1 = negative control probe, d2 = ADAMTS4-specific probe, 0.13 mmol/kg. The method, then: In vivo MR imaging was performed in 6 ApoE^−/− mice (n = 6): three mice (n = 3) received AngII through the osmotic minipumps, three mice (n = 3) received saline, serving as the control group. MR imaging was performed 4 weeks after minipump implantation. On day 1, a native MR scan was followed by the intravenous injection of the negative control peptide (0.13 mmol/kg) and a subsequent MR scan. 24 h later, mice were imaged prior to and following the intravenous administration of the ADAMTS4-specific probe (0.13 mmol/kg).
Analysis of resulting MR images was performed using OsiriX (version 7.1, OsiriX Foundation, Bernex, Switzerland). All morphometric measurements were conducted on high-resolution MRI images. In order to assess the signal intensities, regions of interest (ROIs) were measured as areas of signal enhancement, which were co-localized with areas of aneurysmal-aortic tissue. For these areas, the CNR was calculated using the following formula: CNR = (Combined vessel-wall and aneurysmal-aortic-tissue-signal − blood-signal)/standard-deviation-signal (noise). The signal of noise was defined as the standard deviation in pixel intensity from an ROI placed in the background air anterior to the aorta.

Assay [4] concerns the target ADAMTS4-specific peptide with the glycine exchanged for alanine (alanine scan peptide), Cy5-labeled. The assay can be described thus: MST; Monolith Pico; read-out is the ligand-dependent fluorescence change, not the thermophoresis; Cy5-labeled peptide constant (6 nM solution), protein in a 16-step 1:1 dilution series; 150 mM NaCl, 50 mM TRIS-HCl, 5 mM CaCl2, Tween-20; 25 °C.

The target in assay [5] is ADAMTS4-specific probe, Cy5-labeled (cyclic peptide Cys*-Ser-Arg-Arg-Gly-Cys*-Ser with peptide linker). The description is as above.

Values joined by “and” are separate entries in the source; they are usually repeats but may differ in a detail not shown here. Equal entries are not always repeated. “Also recorded” adds a separate entry of the source. Where a SMILES comes first, the peptide text is derived from it. Bridges are numbered along the chain shown (N, C = ends). The star is where a group is joined. Cy5(nonsulfonated) = CN1C(=CC=CC=CC2=[N+](CCCCCC(=O)*)c3ccccc3C2(C)C)C(C)(C)c2ccccc21

With `C[C@@H]1NC(=O)[C@H](CCCNC(=N)N)NC(=O)[C@H](CCCNC(=N)N)NC(=O)[C@H](CO)NC(=O)[C@@H](N)CSSC[C@@H](C(=O)N[C@@H](CO)C(=O)NCC(=O)NCC(=O)N[C@@H](CO)C(=O)NCC(=O)NCC(=O)N[C@@H](CCCCNC(=O)CCCCCN2C(=CC=CC=CC3=[N+](C)c4ccccc4C3(C)C)C(C)(C)c3ccccc32)C(=O)NCC(N)=O)NC1=O` [ADAMTS4-specific probe-Gly] (H-CSRRACSGGSGGK(Cy5(nonsulfonated))G-NH2; disulfide 1-6; N-terminus and C-terminus assumed), the “binding to ADAMTS4 (ligand-dependent fluorescence change), in words” value on ADAMTS4 [1] is given as “decrease the binding; also recorded: a ligand dependent fluorescence change occurs”. The “decrease in the binding affinity versus the parent peptide” value on ADAMTS4 [1] (alanine scan) is recorded as “around ten times”.
Consider “Cys*-Phe-His-Pro-Tyr-Cys*-Ser (disulfide) [negative control peptide]”, for which the “binding to ADAMTS4 (ligand-dependent fluorescence change), in words” value on ADAMTS4 [1] is “could not find binding; also recorded: no fluorescence change was detectable; also recorded: did not show any binding”. In addition, at ADAMTS4 [2], the “binding in the MST trace” value is “no binding occurs”.
In the case of “Cys*-Phe-His-Pro-Tyr-Cys*-linker (DOTA-Gd) (disulfide) [negative control probe, Cys*-Phe-His-Pro-Tyr-Cys*-linker (DOTA-Gd), similar size to the ADAMTS4-specific probe]”, the “increase in MR signal / CNR in the aortic wall, in words” value in assay [3] (0.13 mmol/kg i.v., 4 weeks after minipump implantation, n = 6) is “no significant increase; also recorded: significantly lower increase”. Moreover, the “CNR post administration, individual animals” value in assay [3] (AAA (AngII) mice) was 7.71 and 5.8 and 6.78; in assay [3] (control (c, saline) mice), 4.54 and 4.4 and 5.52.

B1: ADAMTS4 (A Disintegrin And Metalloproteinase with ThromboSpondin motifs 4), recombinant human (enzyme)
chain: FASLSRFVETLVVADDKMAAFHGAGLKRYLLTVMAAAAKAFKHPSIRNPVSLVVTRLVILGSGEEGPQVGPSAAQTLRSFCAWQRGLNTPEDSDPDHFDTAILFTRQDLCGVSTCDTLGMADVGTVCDPARSCAIVEDDGLQSAFTAAHELGHVFNMLHDNSKPCISLNGPLSTSRHVMAPVMAHVDPEEPWSPCSARFITDFLDNGYGHCLLDKPEAPLHLPVTFPGKDYDADRQCQLTFGPDSRHCPQLPPPCAALWCSGHLNGHAMCQTKHSPWADGTPCGPAQACMGGRCLHMDQLQDFNIPQAGGWGPWGPWGDCSRTCGGGVQFSSRDCTRPVPRNGGKYCEGRRTRFRSCNTEDCPTGSALTFREEQCAAYNHRTDLFKSFPGPMDWVPRYTGVAPQDQCKLTCQAQALGYYYVLEPRVVDGTPCSPDSSSVCVQGRCIHAGCDRIIGSKKKFDKCMVCGGDGSGC
For B1, the figures for the equilibrium dissociation constant (Kd) in assay [4] and in assay [5] were 609 nM and 51 nM, respectively.
